Patent US7008953B2, “3, 5 Disubstituted indazole compounds, pharmaceutical compositions, and methods for mediating or inhibiting cell proliferation” (Agouron Pharmaceuticals, Inc., priority 2003, dated 2006)

Assays:
Format in all cases: biochemical
Conditions in all cases: method of Davies et al.
[1] = tested on: AMP-activiated protein kinase (AMPK); test: Panel of protein kinases: AMPK
Protocol: (§1) The compounds of the present invention were screened against a large panel of protein kinase to determine inhibition activity for CDK as against a variety of protein kinases. The assay was conducted using methods and materials described by Davies, S et al. Specificity and Mechanism of Action of Some Commonly Used Protein Kinase Inhibitors, Biochem J. 351, 95–105 (2000), the contents of which are herein incorporated by reference. The compounds were screened against a panel of protein kinases which include AMP-activiated protein kinase (AMPK), checkpoint kinase (CHK1), casein kinases 1 and 2 (CK1 and CK2), cytoplasmic tyrosine kinase (CSK), dual serine/threonine/tyrosine kinase (DYRK1A), glycogen synthase kinase 3 (GSK3B), c-Jun N-terminal kinase (JNK), lymphocyte kinase (LCK), mitogen-activated protein kinases 2, K-1a, K2 (MAPK2, MAPKAP-K1a, and MAPKAP-K2), MAPK kinase (MKK1, also called MEK), mitogen and stress-activated protein kinase 1 (MSK1), never-in-mitosis kinase 6 (NEK6), p70 ribosomal protein S6 kinase (P70s6K1), 3-phosphoinositide-dependent protein kinase 1 (PDK1), phosphorylase kinase (PHK), protein kinase A (PKA), protein kinase B (PKB, also called Akt), protein kinase C (PKCa), p38-regulated/activated kinase (PRAK), Rho-dependent protein kinase (ROCK-II), stress-activated protein kinase 2a, 2b, 3 and 4 (SAPK-2A or p38, SAPK-2b or p38β2, SAPK3 or p38γ, SAPK4 or p38δ, respectively), and serum- and glucocorticoid-induced kinase (SGK). Compound activity was grouped into categories of weak (<50%), moderate (50–75%) and strong inhibition (>75%).

[2] = target: T1, checkpoint kinase (CHK1) (Homo sapiens, UniProt O14757); test: Panel of protein kinases: CHK1
T1 sequence (O14757 1-476): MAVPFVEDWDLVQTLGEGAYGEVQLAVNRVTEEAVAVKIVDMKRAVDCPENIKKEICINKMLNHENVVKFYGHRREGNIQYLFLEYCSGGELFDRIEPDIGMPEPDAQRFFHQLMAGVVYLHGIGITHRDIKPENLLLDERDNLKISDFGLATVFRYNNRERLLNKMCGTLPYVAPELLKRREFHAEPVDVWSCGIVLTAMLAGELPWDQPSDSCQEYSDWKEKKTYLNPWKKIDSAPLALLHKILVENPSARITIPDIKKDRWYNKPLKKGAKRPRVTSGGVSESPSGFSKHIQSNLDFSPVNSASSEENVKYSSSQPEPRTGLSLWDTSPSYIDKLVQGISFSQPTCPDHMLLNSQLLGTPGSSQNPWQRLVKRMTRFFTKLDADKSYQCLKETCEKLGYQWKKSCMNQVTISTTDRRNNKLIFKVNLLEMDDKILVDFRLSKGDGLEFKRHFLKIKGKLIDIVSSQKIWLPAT
Protocol: as §1

[3] = tested on: casein kinase 1 (CK1); test: Panel of protein kinases: CK1
Protocol: as §1

[4] = tested on: casein kinase 2 (CK2); test: Panel of protein kinases: CK2
Protocol: as §1

[5] = target: glycogen synthase kinase 3 (GSK3B) (Homo sapiens, UniProt P49841); test: Panel of protein kinases: GSK3B
glycogen synthase kinase 3 (GSK3B), sequence (P49841 whole entry, species assumed): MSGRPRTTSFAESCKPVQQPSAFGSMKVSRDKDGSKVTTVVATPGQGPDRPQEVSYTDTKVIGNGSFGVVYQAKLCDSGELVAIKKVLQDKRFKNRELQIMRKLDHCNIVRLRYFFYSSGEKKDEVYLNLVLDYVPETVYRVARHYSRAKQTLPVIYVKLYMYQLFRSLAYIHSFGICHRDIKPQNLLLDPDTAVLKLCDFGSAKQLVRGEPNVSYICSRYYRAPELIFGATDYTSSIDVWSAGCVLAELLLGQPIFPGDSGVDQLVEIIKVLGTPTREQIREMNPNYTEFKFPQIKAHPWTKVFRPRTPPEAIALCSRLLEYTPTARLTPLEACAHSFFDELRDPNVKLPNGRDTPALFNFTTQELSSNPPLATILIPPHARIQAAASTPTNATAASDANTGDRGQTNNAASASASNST
Protocol: as §1

[6] = target: MAPKAP-K1a (Homo sapiens, UniProt Q15418); test: Panel of protein kinases: MAPKAP-K1a
MAPKAP-K1a, sequence (Q15418 whole entry, species assumed): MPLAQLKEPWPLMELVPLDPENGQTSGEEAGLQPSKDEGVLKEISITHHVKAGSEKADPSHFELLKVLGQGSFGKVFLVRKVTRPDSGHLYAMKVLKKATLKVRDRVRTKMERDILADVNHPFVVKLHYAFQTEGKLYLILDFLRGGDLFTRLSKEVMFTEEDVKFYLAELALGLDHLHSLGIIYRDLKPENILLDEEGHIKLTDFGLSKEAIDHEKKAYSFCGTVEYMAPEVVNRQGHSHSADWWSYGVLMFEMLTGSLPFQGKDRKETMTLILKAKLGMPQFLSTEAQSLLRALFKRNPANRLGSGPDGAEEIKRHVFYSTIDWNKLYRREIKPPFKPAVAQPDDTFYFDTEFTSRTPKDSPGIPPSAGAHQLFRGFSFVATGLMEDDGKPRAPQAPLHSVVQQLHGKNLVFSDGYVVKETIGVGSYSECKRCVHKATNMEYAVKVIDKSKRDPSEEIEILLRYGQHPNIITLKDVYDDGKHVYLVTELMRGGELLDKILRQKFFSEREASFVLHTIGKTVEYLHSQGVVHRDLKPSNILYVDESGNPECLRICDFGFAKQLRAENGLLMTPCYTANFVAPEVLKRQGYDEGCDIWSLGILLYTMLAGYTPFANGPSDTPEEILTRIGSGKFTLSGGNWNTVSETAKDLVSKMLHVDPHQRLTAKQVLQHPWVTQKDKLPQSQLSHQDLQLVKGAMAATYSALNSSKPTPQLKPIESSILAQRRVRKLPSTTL
Protocol: as §1

[7] = target: MAPKAP-K2 (Homo sapiens, UniProt P49137); test: Panel of protein kinases: MAPKAP-K2
MAPKAP-K2, sequence (P49137 whole entry, species assumed): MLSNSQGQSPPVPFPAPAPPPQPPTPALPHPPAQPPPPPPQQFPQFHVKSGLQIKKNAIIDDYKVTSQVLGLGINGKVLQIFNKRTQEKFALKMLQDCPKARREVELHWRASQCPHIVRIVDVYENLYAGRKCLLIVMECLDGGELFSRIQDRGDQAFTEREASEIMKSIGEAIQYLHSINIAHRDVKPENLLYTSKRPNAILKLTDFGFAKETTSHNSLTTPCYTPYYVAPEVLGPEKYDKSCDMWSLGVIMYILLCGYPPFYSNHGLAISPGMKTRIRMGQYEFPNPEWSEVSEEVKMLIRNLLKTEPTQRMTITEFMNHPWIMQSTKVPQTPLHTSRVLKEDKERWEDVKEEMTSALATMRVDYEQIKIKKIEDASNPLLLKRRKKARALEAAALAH
Protocol: as §1

[8] = tested on: p70 ribosomal protein S6 kinase (P70s6K1); test: Panel of protein kinases: P70s6K1
Protocol: as §1

[9] = target: protein kinase A (PKA) (Bos taurus, UniProt P00517); test: Panel of protein kinases: PKA
Protocol: as §1

[10] = tested on: Rho-dependent protein kinase (ROCK-II); test: Panel of protein kinases: ROCK-II
Protocol: as §1

[11] = target: T2, stress-activated protein kinase 4 (SAPK4 or p38δ) (Homo sapiens, UniProt O15264); test: Panel of protein kinases: SAPK4
T2 sequence (O15264 1-365): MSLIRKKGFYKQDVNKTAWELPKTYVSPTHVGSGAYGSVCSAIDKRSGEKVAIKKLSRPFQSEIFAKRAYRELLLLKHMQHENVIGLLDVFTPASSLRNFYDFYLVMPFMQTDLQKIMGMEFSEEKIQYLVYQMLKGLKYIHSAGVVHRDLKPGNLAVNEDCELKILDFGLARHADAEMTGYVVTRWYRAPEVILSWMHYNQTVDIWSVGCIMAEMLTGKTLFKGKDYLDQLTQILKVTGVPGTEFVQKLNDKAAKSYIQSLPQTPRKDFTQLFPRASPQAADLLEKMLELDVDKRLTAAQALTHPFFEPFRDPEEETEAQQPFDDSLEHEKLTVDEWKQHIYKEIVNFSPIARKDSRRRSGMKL
Protocol: as §1

| SMILES | Kinase AMPK inhibition [1] | Kinase CHK1 inhibition [2] | Kinase CK1 inhibition [3] | Kinase CK2 inhibition [4] | Kinase GSK3B inhibition [5] | Kinase MAPKAP-K1a inhibition [6] | Kinase MAPKAP-K2 inhibition [7] | Kinase P70s6K1 inhibition [8] | Kinase PKA inhibition [9] | Kinase ROCK-II inhibition [10] | Kinase SAPK4 inhibition [11] |
| --- | --- | --- | --- | --- | --- | --- | --- | --- | --- | --- | --- |
| CCNCc1cncc(-c2ccc3[nH]nc(-c4nc5c(NC(C)=O)cccc5[nH]4)c3c2)c1C [D] | ++ (Strong inhibition >75%) | − (Weak inhibition <50%) | − (Weak inhibition <50%) | − (Weak inhibition <50%) | ++ (Strong inhibition >75%) | + (Moderate inhibition 50–75%) | − (Weak inhibition <50%) | − (Weak inhibition <50%) | − (Weak inhibition <50%) | − (Weak inhibition <50%) | − (Weak inhibition <50%) |
| CCNCc1cncc(-c2ccc3[nH]nc(-c4nc5ccccc5[nH]4)c3c2)c1C [A] | ++ (Strong inhibition >75%) | + (Moderate inhibition 50–75%) | − (Weak inhibition <50%) | − (Weak inhibition <50%) | ++ (Strong inhibition >75%) | ++ (Strong inhibition >75%) | − (Weak inhibition <50%) | + (Moderate inhibition 50–75%) | ++ (Strong inhibition >75%) | ++ (Strong inhibition >75%) | − (Weak inhibition <50%) |
| CCNCc1cncc(-c2ccc3[nH]nc(-c4nc5c(C(=O)NC)cccc5[nH]4)c3c2)c1C [B] | ++ (Strong inhibition >75%) | + (Moderate inhibition 50–75%) | − (Weak inhibition <50%) | − (Weak inhibition <50%) | ++ (Strong inhibition >75%) | ++ (Strong inhibition >75%) | − (Weak inhibition <50%) | + (Moderate inhibition 50–75%) | ++ (Strong inhibition >75%) | + (Moderate inhibition 50–75%) | − (Weak inhibition <50%) |
| CCNCc1cncc(-c2ccc3[nH]nc(-c4nc5cc(F)ccc5[nH]4)c3c2)c1C [Example 2, Ethyl-{5-[3-(5-fluoro-1H-benzoimidazol-2-yl)-1H-indazol-5-yl]-4-methyl-pyridin-3-ylmethyl}-amine] | – | − (Weak inhibition <50%) | – | – | ++ (Strong inhibition >75%) | − (Weak inhibition <50%) | − (Weak inhibition <50%) | – | − (Weak inhibition <50%) | – | − (Weak inhibition <50%) |
| CCNCc1cncc(-c2ccc3[nH]nc(-c4nc5c(SC)cccc5[nH]4)c3c2)c1C [C] | ++ (Strong inhibition >75%) | − (Weak inhibition <50%) | − (Weak inhibition <50%) | − (Weak inhibition <50%) | ++ (Strong inhibition >75%) | ++ (Strong inhibition >75%) | − (Weak inhibition <50%) | − (Weak inhibition <50%) | + (Moderate inhibition 50–75%) | + (Moderate inhibition 50–75%) | − (Weak inhibition <50%) |
| CCNCc1cncc(-c2ccc3[nH]nc(-c4nc5c(F)cc(F)cc5[nH]4)c3c2)c1C [Example 1, {5-[3-(4,6-Difluoro-1H-benzoimidazol-2-yl)-1H-indazol-5-yl]-4-methyl-pyridin-3-ylmethyl}-ethyl-amine] | ++ (Strong inhibition >75%) | − (Weak inhibition <50%) | − (Weak inhibition <50%) | − (Weak inhibition <50%) | ++ (Strong inhibition >75%) | ++ (Strong inhibition >75%) | − (Weak inhibition <50%) | − (Weak inhibition <50%) | − (Weak inhibition <50%) | − (Weak inhibition <50%) | − (Weak inhibition <50%) |
